Measured values: patent US20090298814A1, “Novel salts of conjugated psychotropic drugs and processes of preparing same” (RAMOT AT TEL AVIV UNIVERISTY LTD, priority 2005, published 2009)

Legend:
Type in all cases: physicochemical
[1] = Stability of the free base of the conjugate by HPLC at 20 and 40° C.
Description: (§1) HPLC analyses were performed on a Water 2695 Separations Module, using a Luna C18 (2) 50 mm×4.6 mm×3 um column, a 5 μl injection volume and a 2487 dual wavelength detector under the following instrumental conditions: Mobile phase A: 0.1% formic acid; Mobile phase B: acetonitrile; Flow rate: 0.5 ml per minute; Mobile phase gradient: 0.0 minutes 90% A, 10% B, 14.0 minutes 20% A, 80% B, 15.0 minutes 90% A, 10% B and 20.0 minutes 90% A, 10% B; Run time: 20 minutes; Detection: UV at 254 nm; Column temperature: 40° C.
The stability of neat free base of the chemical conjugate was determined by performing an HPLC analysis daily during a period of 24 days and determining the appearance of its degradation products perphenazine and GABA. Samples of the neat free base of the conjugate were collected after deprotection of AN-197 with TFA, as described in the preparation of the maleate and oxalate salts, using the general procedure described above in Example 9, were dissolved in the mobile phase solution which was used in the HPLC analysis (2:1 acetonitrile:water, pH 8) and were kept to either at 20° C. or at 40° C.

[2] = Chemical stability of the oxalate salt by HPLC, open container; conditions: for perphenazine content (HPLC) / purity of the salt (HPLC): open container at room temperature
Description: as §1
(§2) A sample of the oxalate addition salt was kept in an open container at room temperature for a five-week period (about 840 hours) and analyzed thereafter. The hygroscopicity of the oxalate salt was determined by following the water content of the salt using the Karl Fischer (KF) titration analysis method and the chemical stability of the oxalate salt was determined by following the appearance of the degradation product perphenazine in HPLC analysis.

[3] = Hygroscopicity of the oxalate salt by Karl Fischer titration; conditions: open container at room temperature
Description: (§3) Water absorption and content measurements were carried out using a Karl Fischer (KF) titrator. Karl Fischer titration is a classic method in analytical chemistry that uses calometric titration to determine the moisture content of a sample, which is specific to water. The titration reaction taking place in the presence of a base and 50:50 methanol:dichloromethane as a titration solvent.
(§4) The accurately weighted samples (near 100 mg) of the tested compound were placed in the titrator to determine the amount of sample required for measuring 10-250 μg of water, and the water content was calculated accordingly.
as §2

[4] = Water content of AN-168 by Karl Fischer (KF) titration
Description: as §3
The Karl Fischer chemical reaction takes place between iodine and water with the reactants being in a 1 to 1 ratio between iodine and water.
as §4

[5] = Stability of AN-168 dry salt by HPLC at 5, 20 and 40° C.
Description: as §1
To determine the stability of the HCl salt of the GABA conjugate (AN-168), prepared according to the procedure described in Example 2 above, three samples of the salt were studied by HPLC analyses. Thus, samples of AN-168 as dry salt were kept at 5° C., 20° C. and 40° C. over a period of 24 day and were analyzed by HPLC for determining the appearance of degradation products.

[6] = Stability of the 1-napsylate salt; conditions: two weeks
[7] = in HPLC mobile phase (2:1 acetonitrile:water, pH 8), kept at 20° C., 0 hours
[8] = in HPLC mobile phase (2:1 acetonitrile:water, pH 8), kept at 40° C., 0 hours
[9] = in HPLC mobile phase, kept at 20° C., 24 hours
[10] = in HPLC mobile phase, kept at 20° C., 168 hours
[11] = in HPLC mobile phase, kept at 20° C., 336 hours
[12] = in HPLC mobile phase, kept at 20° C., 504 hours
[13] = in HPLC mobile phase, kept at 20° C., 576 hours
[14] = in HPLC mobile phase, kept at 40° C., 24 hours
[15] = in HPLC mobile phase, kept at 40° C., 168 hours
[16] = in HPLC mobile phase, kept at 40° C., 336 hours
[17] = in HPLC mobile phase, kept at 40° C., 504 hours
[18] = in HPLC mobile phase, kept at 40° C., 576 hours
[19] = end of five-week period (about 840 hours)
[20] = dry salt kept at 5° C., 0 hours
[21] = dry salt kept at 5° C., 24 hours
[22] = dry salt kept at 5° C., 48 hours
[23] = dry salt kept at 5° C., 120 hours
[24] = dry salt kept at 5° C., 144 hours
[25] = dry salt kept at 5° C., 336 hours
[26] = dry salt kept at 5° C., 456 hours
[27] = dry salt kept at 5° C., 504 hours
[28] = dry salt kept at 5° C., 576 hours
[29] = dry salt kept at 20° C., 0 hours
[30] = dry salt kept at 20° C., 24 hours
[31] = dry salt kept at 20° C., 48 hours
[32] = dry salt kept at 20° C., 120 hours
[33] = dry salt kept at 20° C., 144 hours
[34] = dry salt kept at 20° C., 336 hours
[35] = dry salt kept at 20° C., 456 hours
[36] = dry salt kept at 20° C., 504 hours
[37] = dry salt kept at 20° C., 576 hours
[38] = dry salt kept at 40° C., 0 hours
[39] = dry salt kept at 40° C., 24 hours
[40] = dry salt kept at 40° C., 48 hours
[41] = dry salt kept at 40° C., 120 hours
[42] = dry salt kept at 40° C., 144 hours
[43] = dry salt kept at 40° C., 336 hours
[44] = dry salt kept at 40° C., 456 hours
[45] = dry salt kept at 40° C., 504 hours
[46] = dry salt kept at 40° C., 576 hours
[47] = sealed and open container at room temperature

NCCCC(=O)OCCN1CCN(CCCN2c3ccccc3Sc3ccc(Cl)cc32)CC1 [Free base]
stability in words ([1]; at both temperatures (20° C. and 40° C.)): highly unstable
relative peak area degradation to perphenazine ([1]; first 24 hours, sample kept at 20° C.): approximately 5%
free base degraded to perphenazine ([1]; first 24 hours, sample kept at 40° C.): more than 20%
Free base % area [1, 7]: 98.50 % area
Perphenazine % area [1, 7]: 1.50 % area
Free base % area [1, 8]: 98.50 % area
Perphenazine % area [1, 8]: 1.50 % area
Free base % area [1, 9]: 95.05 % area
Perphenazine % area [1, 9]: 4.95 % area
Free base % area [1, 10]: 74.71 % area
Perphenazine % area [1, 10]: 25.29 % area
Free base % area [1, 11]: 61.63 % area
Perphenazine % area [1, 11]: 38.37 % area
Free base % area [1, 12]: 53.35 % area
Perphenazine % area [1, 12]: 46.65 % area
Free base % area [1, 13]: 47.23 % area
Perphenazine % area [1, 13]: 52.77 % area
Free base % area [1, 14]: 78.74 % area
Perphenazine % area [1, 14]: 21.26 % area
Free base % area [1, 15]: 20.09 % area
Perphenazine % area [1, 15]: 79.91 % area
Free base % area [1, 16]: 6.12 % area
Perphenazine % area [1, 16]: 93.88 % area
Free base % area [1, 17]: 5.52 % area
Perphenazine % area [1, 17]: 94.48 % area
Free base % area [1, 18]: 3.93 % area
Perphenazine % area [1, 18]: 96.07 % area

NCCCC(=O)OCCN1CCN(CCCN2c3ccccc3Sc3ccc(Cl)cc32)CC1.O=C(O)C(=O)O.O=C(O)C(=O)O.O=C(O)C(=O)O [oxalate addition salt]
stability and hygroscopicity in words ([2]; as compared to the HCl salt (AN-168)): more stable and less hygroscopic
perphenazine content (HPLC) [2, 19]: 1.71%
purity of the salt (HPLC) [2, 19]: 94.61%
perphenazine content (HPLC) ([2]; initial): 0.75%
purity of the salt (HPLC) ([2]; initial): 98.05%
water content (KF) [3, 19]: 1.90 weight percents
water content (KF) ([3]; initial): 1.36 weight percents

Cl.NCCCC(=O)OCCN1CCN(CCCN2c3ccccc3Sc3ccc(Cl)cc32)CC1 [AN-168, Perphenazine 4-Aminobutyrate Hydrochloride]
hygroscopicity ([4]; final product): hygroscopic
water content (KF) ([4]; final product, recrystallized): 1.05 % weight/weight
water content (KF) ([4]; repeated procedure with additional 2 hours at 40° C.): 12.5 % weight/weight
AN-168 % area [5, 20]: 98.64 % area
Perphenazine % area [5, 20]: 1.36 % area
AN-168 % area [5, 21]: 98.57 % area
Perphenazine % area [5, 21]: 1.43 % area
AN-168 % area [5, 22]: 98.52 % area
Perphenazine % area [5, 22]: 1.48 % area
AN-168 % area [5, 23]: 98.40 % area
Perphenazine % area [5, 23]: 1.60 % area
AN-168 % area [5, 24]: 98.13 % area
Perphenazine % area [5, 24]: 1.87 % area
AN-168 % area [5, 25]: 97.21 % area
Perphenazine % area [5, 25]: 2.03 % area
AN-168 % area [5, 26]: 97.95 % area
Perphenazine % area [5, 26]: 2.05 % area
AN-168 % area [5, 27]: 97.15 % area
Perphenazine % area [5, 27]: 2.85 % area
AN-168 % area [5, 28]: 96.14 % area
Perphenazine % area [5, 28]: 3.49 % area
AN-168 % area [5, 29]: 98.64 % area
Perphenazine % area [5, 29]: 1.36 % area
AN-168 % area [5, 30]: 98.42 % area
Perphenazine % area [5, 30]: 1.58 % area
AN-168 % area [5, 31]: 98.31 % area
Perphenazine % area [5, 31]: 1.69 % area
AN-168 % area [5, 32]: 97.68 % area
Perphenazine % area [5, 32]: 2.32 % area
AN-168 % area [5, 33]: 97.26 % area
Perphenazine % area [5, 33]: 2.74 % area
AN-168 % area [5, 34]: 96.26 % area
Perphenazine % area [5, 34]: 3.74 % area
AN-168 % area [5, 35]: 95.58 % area
Perphenazine % area [5, 35]: 4.51 % area
AN-168 % area [5, 36]: 94.60 % area
Perphenazine % area [5, 36]: 5.40 % area
AN-168 % area [5, 37]: 93.80 % area
Perphenazine % area [5, 37]: 5.87 % area
AN-168 % area [5, 38]: 98.64 % area
Perphenazine % area [5, 38]: 1.36 % area
AN-168 % area [5, 39]: 97.97 % area
Perphenazine % area [5, 39]: 2.03 % area
AN-168 % area [5, 40]: 97.70 % area
Perphenazine % area [5, 40]: 2.30 % area
AN-168 % area [5, 41]: 96.95 % area
Perphenazine % area [5, 41]: 3.05 % area
AN-168 % area [5, 42]: 97.03 % area
Perphenazine % area [5, 42]: 2.97 % area
AN-168 % area [5, 43]: 96.69 % area
Perphenazine % area [5, 43]: 3.31 % area
AN-168 % area [5, 44]: 95.55 % area
Perphenazine % area [5, 44]: 4.45 % area
AN-168 % area [5, 45]: 95.62 % area
Perphenazine % area [5, 45]: 3.92 % area
AN-168 % area [5, 46]: 95.55 % area
Perphenazine % area [5, 46]: 4.06 % area
stability in words ([5]; over time, at each of the tested temperatures (5, 20, 40° C.)): degraded into perphenazine and GABA and/or underwent trans-esterification to perphenazine and 2-pyrrolidinone

NCCCC(=O)OCCN1CCN(CCCN2c3ccccc3Sc3ccc(Cl)cc32)CC1.O=S(=O)(O)c1cccc2ccccc12.O=S(=O)(O)c1cccc2ccccc12.O=S(=O)(O)c1cccc2ccccc12 [1-napsylate salt]
degradation to perphenazine [6, 47]: minimal degradation
stability in words [6, 47]: stable
stability in words ([6]; stored at both −20° C. and 0° C. under nitrogen in a closed container): highly stable
